The values below come from patent US12629375B2, “Compounds with anti-tumor activity against cancer cells bearing HER2 exon 21 insertions” (Board of Regents, The University of Texas System, priority 2019, dated 2026).

Like-named read-outs stand apart in the source and are kept apart here.

Experiment [1] relates to Ba/F3 cells stably expressing HER2 mutations (exons 19, 20, 21). The experiment is described as follows: Ba/F3 HER2 mutant cell viability (Cell Titer Glo) TKI screen. In kind it is cell-based. Conditions: for inhibitory activity for HER2 mutants across all three exons: exons 19, 20, 21; for inhibitory activity for HER2 mutants across all three exons / activity against cells expressing D769 variants / inhibiting cell viability in cells expressing exon 20 mutations: 72 hours; for sensitivity of HER2 mutants to inhibitor: all HER2 mutants, 72 hours drug treatment; for activity against cells expressing D769 variants: HER2 D769 variants; for inhibiting cell viability in cells expressing exon 20 mutations: HER2 exon 20 mutations. As for the experimental part:
Briefly, stable Ba/F3 cell lines were generated by retroviral transduction of Ba/F3 cell line for 12 hours. […] Three days after transduction, 2 μg/ml puromycin (Invitrogen) was added to the RPMI media. After 5 days of selection, cells were stained with FITC-HER2 (Biolegend) sorted by FACS. Cell lines were then grown in the absence of IL-3 for two weeks and cell viability was assessed every three days using the Cell Titer Glo assay (Progema).
(§1) Briefly, 2000-3000 cells per well were plated in 384-well plates (Greiner Bio-One) in technical triplicate. Cells were treated with seven different concentrations of tyrosine kinase inhibitors or vehicle alone at a final volume of 40 μL per well. After 3 days, 11μL of Cell Titer Glo was added to each well. Plates were shaken for 15 minutes, and bioluminescence was determined using a FLUOstar OPTIMA multi-mode micro-plate reader (BMG LABTECH). Bioluminescence values were normalized to DMSO treated cells, and normalized values were plotted in GraphPad Prism using non-linear regression fit to normalized data with a variable slope.
A general note: In ATP-based viability assays light output follows the ATP content of the culture.

Experiment [2] has as its system patients with HER2 mutant NSCLC. Conditions: cited from earlier work.
In another experiment the test system is p-HER2. Kind of experiment: Western blot of p-HER2 in MCF10A HER2 G776delinsVC cells. In kind it is cell-based, human. Conditions: 10 nM, 2 hours treatment. As for the experimental part:
Western Blotting: For Western blotting, cells were washed in PBS and lysed in RIPPA lysis buffer (ThermoFisher) and protease inhibitor cocktail tablets (Roche). Protein (30-40 μg) was loaded into gels purchased from BioRad. BioRad semi-dry transfer was used and then probed with antibodies against, pHER2, HER2, pPI3K, PI3K, p-AKT, AKT, p-ERK1/2, and ERK1/2 (1:1000; Cell Signaling). Blots were probed with antibodies against vinculin or β-actin (Sigma-Aldrich) as a loading control, and exposed using ECL Western Blotting substrate (Promega).

In experiment [3] the test system is MCF10A HER2 mutant cell lines. Kind of experiment: MCF10A cell viability, HER2 exon 20 mutant cell lines together (average, selectivity vs HER2 WT, T-DM1 combination). In kind it is cell-based, human. As for the experimental part:
as §1
Human Cell lines: MCF10A cells were purchased from ATCC and were cultured in DMEM/F12 media supplemented with 1% penicillin/streptomycin, 5% horse serum (sigma), 20 ng/ml EGF, […] hydrocortisone, and 10 μg/ml insulin. […] Two days after transduction, 0.5 μg/ml puromycin (Invitrogen) was added to the RPMI media. […] CW-2 cells were provided by the Riken cell line database under MTA, and were maintained in RPMI containing 10% FBS and 1% penicillin/streptomycin.

Experiment [4] deals with CW-2 large intestine cells harboring HER2 exon 19 mutation L755S. The experiment is described as follows: CW-2 cell viability. In kind it is cell-based. The following applies: Homo sapiens, CW-2, 72 h, read-out: average IC50. As for the experimental part: as §1, with “Cell Viability Assay and IC50 Estimation: Cell viability was determined using the Cell Titer Glo assay (Promega) as previously described (Robichaux et al., 2018). Briefly,” for “Briefly,”, “slope. IC50 values were calculated by GraphPad Prism at 50% inhibition.” for “slope.”
Human Cell lines: MCF10A cells were purchased from ATCC and were cultured in DMEM/F12 media supplemented with 1% penicillin/streptomycin, 5% horse serum (sigma), 20 ng/ml EGF, […] hydrocortisone, and 10 μg/ml insulin. Stable cell lines were created by retroviral transduction, and retroviruses were generated by transfecting pBabe-Puro based vectors summarized in Table 1 (Addgene and Bioinnovatise) into Phoenix 293T-ampho cells (Orbigen) using Lipofectamine 2000 (Invitrogen). […]

In experiment [5] the test system is CW-2 colorectal cell xenograft (HER2 L755S). The experiment is described as follows: CW-2 xenograft mouse model. The following applies: day 21, 30 mg/kg, 5 days/week. It counts as in vivo, nu/nu nude mice. Here is the method: In vivo xenograft studies: CW-2 cell line xenografts were created by injecting 1×10^6 cells in 50% matrigel into 6 week old female nu/nu nude mice. When tumors reached 350 mm^3 mice were randomized into 4 groups: 20 mg/kg afatinib, 5 mg/kg poziotinib, 30 mg/kg neratinib, or vehicle control (0.5% Methylcellulose, 2% Tween-80 in dH2O). Tumor volumes were measured three times per week. Mice received drug Monday-Friday (5 days per week), but began dosing on Wednesday allowing for a 2 day holiday after the first 3 days of dosing.

The subject of experiment [6] is patients with HER2 mutant cancers. The following applies: cited from earlier work.
The test system of experiment [7] is HER2 Y772dupYVMA NSCLC PDX. Kind of experiment: HER2 Y772dupYVMA NSCLC PDX model. It counts as in vivo, NSG mice. As for the experimental part: Y772dupYVMA PDX mice were purchased from Jax Labs (Model #TM01446). Fragments from tumors expressing HER2 Y772dupYVMA were inoculated into 5- to 6-week old female NSG mice (Jax Labs #005557). Mice were measured three times per week, and when tumors reached a volume of 200-300 mm^3 mice were randomized into four treatment groups: vehicle control (0.5% Methylcellulose, 0.05% Tween-80 in dH2O), 2.5 mg/kg poziotinib, 10 mg/kg T-DM1, or combination of 2.5 mg/kg poziotinib and 10 mg/kg T-DM1. Tumor volumes and body weight were measured three times per week. Mice treated with 2.5 mg/kg poziotinib received drug orally Monday-Friday (5 days per week). Mice treated with 10 mg/kg T-DM1 received one intravenous (IV) dose of T-DM1 on the day of randomization. Mice treated with combination poziotinib and T-DM1 received one IV dose of T-DM1 and began 2.5 mg/kg poziotinib five days per week, 3 days after the dose of T-DM1. Mice received a holiday from dosing if the mouse dropped in body weight by greater than 10% or if body weight dropped below 20 grams. Progression free survival was defined as tumor doubling from best response for two consecutive measurements. Complete regression was defined as greater than 95% reduction in tumor burden, and for mice with complete regression, tumor doubling was defined greater than 75 mm^3 for more than two consecutive measurements. Experiments were completed in agreement with Good Animal Practices and with approval from MD Anderson Cancer Center Institutional Animal Care and Use Committee (Houston, TX).

The subject of experiment [8] is patients with HER2 mutant NSCLC. The following applies: cited from earlier work. This is another data set of the same source.
Where [9] appears, read: lung cancer patients harboring HER2 exon 20 insertion mutations.

For `COc1cc2ncnc(Nc3ccc(F)c(Cl)c3)c2cc1NC(=O)/C=C/CN1CCCCC1` [dacomitinib], the “inhibitory activity for HER2 mutants across all three exons” value in experiment [1] was “had inhibitory activity”. In addition, in experiment [2] (HER2 mutant NSCLC), the ORR was 11.5%. Further, the response rate in [2] (setting [9]) was 11.5%. In addition, the responses entry in [2] (patients bearing HER2 exon 20 insertion p.Y772dupYVMA) is “no responses”.

`CS(=O)(=O)CCNCc1ccc(-c2ccc3ncnc(Nc4ccc(OCc5cccc(F)c5)c(Cl)c4)c3c2)o1` [lapatinib]: the “sensitivity of HER2 mutants to inhibitor” value in experiment [1] was “robust resistance”.

Consider `Cc1cc(C(=O)Nc2nc3cccc(Cl)c3n2[C@@H]2CCCCN(C(=O)/C=C/CN(C)C)C2)ccn1` [nazartinib], for which, in experiment [1], the “activity against cells expressing D769 variants” value is listed as “did demonstrate activity” and the “inhibiting cell viability in cells expressing exon 20 mutations” value is “not effective”.

On to `CCOc1cc2ncc(C#N)c(Nc3ccc(OCc4ccccn4)c(Cl)c3)c2cc1NC(=O)/C=C/CN(C)C` [neratinib], for which the “inhibition of p-HER2” value in the experiment on p-HER2 is “not”. For the same compound, the IC50 (usually the concentration at which inhibition is half-maximal) in experiment [3] (Homo sapiens, MCF-10A, average over MCF10A G776del insVC, Y772dupYVMA, G778dupGSP cells, 72 hours) is 150 nM; in [4], 68.8 nM. The “IC50 values in Ba/F3 drug screening” value in experiment [1] (HER2 L755S, V777L, or L869R mutations) is “low IC50 values”. Further, the “sensitivity of V842I mutation in the drug screen assays” value in experiment [1] (HER2 V842I (exon 21)) is “not sensitive”. Also, in experiment [1], the “inhibitory activity for HER2 mutants across all three exons” value is given as “had inhibitory activity”. Also, in experiment [5], the “increased tumor volume compared to vehicle control” value was 28%. In experiment [6] (SUMMIT pan-cancer study, all HER2 mutations), the “objective response rate (ORR)” value was “less than 15%”. The ORR in experiment [6] (SUMMIT, HER2 kinase domain point mutations) is 21.4%; in [6] (SUMMIT, exon 20 insertions), 7.1%; in experiment [6] (patients with breast cancer, single agent, multiple studies) it was 12.5%-32%. In [6] (SUMMIT, patients with colorectal cancer), the response entry is recorded as “did not respond”. For the same compound, the response rate is on record as 0% in experiment [6] (setting [9]) and 0%-4% in [6] (patients with lung cancer, single agent).

Regarding `C=CC(=O)Nc1cc(Nc2nccc(-c3cn(C)c4ccccc34)n2)c(OC)cc1N(C)CCN(C)C` [osimertinib], in [1], the “activity against cells expressing D769 variants” value is reported as “did demonstrate activity” and the “inhibiting cell viability in cells expressing exon 20 mutations” value is given as “not effective”.

Take `CCOc1cc2ncc(C#N)c(Nc3ccc(OCc4ccccn4)c(Cl)c3)c2cc1NC(=O)/C=C/[C@H]1CCCN1C` [pyrotinib]: the “selectivity index (SI, IC50 value mutant/IC50 value WT)” value in [3] (MCF10A HER2 mutant vs HER2 WT cell lines) is listed as 0.063.

Consider `CNC(=O)CN1CCC(Oc2cc3c(Nc4cccc(Cl)c4F)ncnc3cc2OC)CC1` [sapatinib], for which the “sensitivity of HER2 mutants to inhibitor” value in experiment [1] was “robust resistance”.

Consider T-DM1, for which the “tumor growth after best response” value in experiment [7] (by day 30) was “tumor growth resumed in all mice”. Moreover, the “mice with complete tumor regression” value in [7] (day 15 (best response), poziotinib 2.5 mg/kg, T-DM1 10 mg/kg single dose) was 2/9. In addition, the “median PFS (mPFS), time to tumor doubling from best response” value in experiment [7] (poziotinib 2.5 mg/kg 5 days per week, T-DM1 10 mg/kg single IV dose) is on record as 27 days. Moreover, the “inhibition of cell viability of MCF10A HER2 mutant cell lines” value in [3] (agent alone) is listed as “did not inhibit cell viability”. Also, the ORR in experiment [8] (patients harboring exon 20 insertion mutations) is 54.5%. Besides, the partial responses result in experiment [8] (patients with exon 19 mutations) is given as “did not have partial responses”.
